What was measured:
m4 receptors = m4 receptors (Homo sapiens, UniProt P08173); assay type: cell-based; conditions: CHO m4 cells treated with pertussis toxin
[1] = molecular target: muscarinic cholinergic receptors; assay: 3H-oxotremorine-M binding inhibition (oxotremorine-M versus N-methylscopolamine binding studies); conditions: inhibition of binding of 3H-oxotremorine-M; read-out: inhibition constant (Ki)
D2 receptor subtype = D2 receptor subtype (Homo sapiens, UniProt P14416); assay: Pharmacological studies at the D2 receptor subtype
Sequence of D2 receptor subtype (P14416 whole entry): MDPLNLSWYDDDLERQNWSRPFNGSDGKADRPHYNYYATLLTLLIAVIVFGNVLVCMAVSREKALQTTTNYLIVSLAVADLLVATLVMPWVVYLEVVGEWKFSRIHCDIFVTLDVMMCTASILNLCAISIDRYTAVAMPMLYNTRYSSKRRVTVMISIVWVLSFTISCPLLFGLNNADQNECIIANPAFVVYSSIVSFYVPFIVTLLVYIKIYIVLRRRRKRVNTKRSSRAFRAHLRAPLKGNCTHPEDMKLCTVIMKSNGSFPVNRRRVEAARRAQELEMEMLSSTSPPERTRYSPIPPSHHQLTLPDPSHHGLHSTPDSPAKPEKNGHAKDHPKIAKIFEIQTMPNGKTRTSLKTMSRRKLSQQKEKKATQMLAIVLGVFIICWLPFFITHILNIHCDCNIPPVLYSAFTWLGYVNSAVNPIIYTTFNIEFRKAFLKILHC

Sequence of m4 receptors (P08173 whole entry): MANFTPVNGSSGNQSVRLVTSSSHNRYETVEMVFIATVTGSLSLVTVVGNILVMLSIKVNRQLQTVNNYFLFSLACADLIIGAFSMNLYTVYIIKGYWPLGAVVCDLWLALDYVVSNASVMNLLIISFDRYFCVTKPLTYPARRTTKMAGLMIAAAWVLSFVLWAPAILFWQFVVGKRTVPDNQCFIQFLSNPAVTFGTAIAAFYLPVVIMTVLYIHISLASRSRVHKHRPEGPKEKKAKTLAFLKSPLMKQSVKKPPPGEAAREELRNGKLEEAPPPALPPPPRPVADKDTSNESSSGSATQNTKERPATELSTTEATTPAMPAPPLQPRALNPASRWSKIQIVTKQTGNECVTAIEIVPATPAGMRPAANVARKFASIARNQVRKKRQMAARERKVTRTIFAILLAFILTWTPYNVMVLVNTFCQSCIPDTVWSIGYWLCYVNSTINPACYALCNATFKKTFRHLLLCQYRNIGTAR

SMILES: CCCCCCOc1nsnc1C1=CCCN(C)C1 [xanomeline, 3-(4-hexyloxy-1,2,5-thiadiazol-3-yl)-1,2,5,6-tetrahydro-1-methylpyridine]
- formation of cAMP (m4 receptors): efficaciously and potently stimulated the formation of cAMP
- Ki [1]: 2 nM
- activity at the D2 receptor subtype (D2 receptor subtype): active
